Assay results as given in patent US7880007B2, “Bicyclic substituted phenyl piperidine modulators of muscarinic receptors” (Vertex Pharmaceuticals Incorporated, priority 2004, dated 2011).

Assays:
Assay type in all cases: cell-based
[1] = target: T1, M3 muscarinic receptor (Homo sapiens, UniProt P20309); assay: Functional mobilization of intracellular calcium (FLIPR), M3-CHO cells; details: for Emax: 100% efficacy = maximum response obtained with the Carbachol control; for M3 Activity: M3-CHO cells, calcium mobilization (FLIPR)
T1 construct: expressed in transfected cells; host or cells: CHO (M3-CHO)
T1 sequence (P20309 whole entry): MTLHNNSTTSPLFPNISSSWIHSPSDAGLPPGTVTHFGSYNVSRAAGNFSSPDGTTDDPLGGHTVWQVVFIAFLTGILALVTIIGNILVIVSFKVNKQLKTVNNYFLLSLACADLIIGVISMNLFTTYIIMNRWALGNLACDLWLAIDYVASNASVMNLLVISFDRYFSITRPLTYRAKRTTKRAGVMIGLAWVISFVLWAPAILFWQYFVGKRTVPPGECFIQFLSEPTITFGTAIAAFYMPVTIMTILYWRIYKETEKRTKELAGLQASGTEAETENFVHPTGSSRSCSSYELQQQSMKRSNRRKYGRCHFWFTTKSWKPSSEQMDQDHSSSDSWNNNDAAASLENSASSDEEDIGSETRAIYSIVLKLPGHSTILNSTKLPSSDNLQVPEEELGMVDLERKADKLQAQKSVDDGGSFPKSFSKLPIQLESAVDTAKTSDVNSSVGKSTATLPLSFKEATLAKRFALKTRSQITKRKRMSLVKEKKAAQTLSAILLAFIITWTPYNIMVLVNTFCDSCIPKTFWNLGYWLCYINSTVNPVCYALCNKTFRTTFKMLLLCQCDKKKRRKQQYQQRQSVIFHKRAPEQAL
Method in brief: (§1)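 Calcium mobilisation read by FLIPR over 60 s (ex 488/em 540 nm) in recombinant muscarinic CHO lines loaded with calcium dye plus 1 mM probenecid. Compounds tested as agonists alone, or as inhibitors against EC80 carbachol after 15 min pre-incubation or co-addition; 0.5% DMSO; efficacy scaled to carbachol maximal response.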

[2] = target: T2, M1 muscarinic receptor (Homo sapiens, UniProt P11229); assay: Functional mobilization of intracellular calcium (FLIPR), M1-CHO cells; details: for Emax: 100% efficacy = maximum response obtained with the Carbachol control; for M1 Activity: M1-CHO cells, calcium mobilization (FLIPR)
T2 construct: expressed in transfected cells; host or cells: CHO (M1-CHO)
T2 sequence (P11229 1-460): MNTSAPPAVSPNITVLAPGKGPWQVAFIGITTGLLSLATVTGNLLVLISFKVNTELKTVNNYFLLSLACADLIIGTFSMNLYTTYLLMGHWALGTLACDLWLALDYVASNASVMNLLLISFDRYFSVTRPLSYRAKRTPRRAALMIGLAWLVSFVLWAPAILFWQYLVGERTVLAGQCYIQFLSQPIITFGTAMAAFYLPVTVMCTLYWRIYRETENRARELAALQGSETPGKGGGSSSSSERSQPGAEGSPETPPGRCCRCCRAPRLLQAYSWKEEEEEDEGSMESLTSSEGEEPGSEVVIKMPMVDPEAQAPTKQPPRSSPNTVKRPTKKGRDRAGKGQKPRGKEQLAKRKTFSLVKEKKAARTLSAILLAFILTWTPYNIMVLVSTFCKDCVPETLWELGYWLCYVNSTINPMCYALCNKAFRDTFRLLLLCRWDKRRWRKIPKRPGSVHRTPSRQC
Method in brief: as §1

[3] = target: T3, M2 muscarinic receptor (Homo sapiens, UniProt P08172); assay: Functional mobilization of intracellular calcium (FLIPR), M2-CHO cells; details: for Emax: 100% efficacy = maximum response obtained with the Carbachol control; for M2 Activity: M2-CHO cells, calcium mobilization (FLIPR)
T3 construct: expressed in transfected cells; host or cells: CHO (M2-CHO)
T3 sequence (P08172 1-466): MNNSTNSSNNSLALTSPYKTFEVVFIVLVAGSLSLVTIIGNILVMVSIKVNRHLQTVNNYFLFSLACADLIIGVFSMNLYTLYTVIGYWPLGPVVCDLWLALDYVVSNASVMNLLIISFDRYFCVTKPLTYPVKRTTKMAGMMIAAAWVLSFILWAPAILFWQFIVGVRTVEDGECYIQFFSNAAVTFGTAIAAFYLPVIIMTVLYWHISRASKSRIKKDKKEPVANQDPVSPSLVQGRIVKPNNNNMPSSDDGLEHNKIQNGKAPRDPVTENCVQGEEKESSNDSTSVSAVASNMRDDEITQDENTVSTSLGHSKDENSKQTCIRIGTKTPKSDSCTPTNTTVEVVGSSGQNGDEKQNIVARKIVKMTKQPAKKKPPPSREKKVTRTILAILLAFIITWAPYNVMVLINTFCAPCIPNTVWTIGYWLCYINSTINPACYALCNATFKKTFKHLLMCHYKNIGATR
Method in brief: as §1

[4] = target: T4, M4 muscarinic receptor (Homo sapiens, UniProt P08173); assay: Functional mobilization of intracellular calcium (FLIPR), M4-CHO cells; details: for Emax: 100% efficacy = maximum response obtained with the Carbachol control; for M4 Activity: M4-CHO cells, calcium mobilization (FLIPR)
T4 construct: expressed in transfected cells; host or cells: CHO (M4-CHO)
T4 sequence (P08173 1-479): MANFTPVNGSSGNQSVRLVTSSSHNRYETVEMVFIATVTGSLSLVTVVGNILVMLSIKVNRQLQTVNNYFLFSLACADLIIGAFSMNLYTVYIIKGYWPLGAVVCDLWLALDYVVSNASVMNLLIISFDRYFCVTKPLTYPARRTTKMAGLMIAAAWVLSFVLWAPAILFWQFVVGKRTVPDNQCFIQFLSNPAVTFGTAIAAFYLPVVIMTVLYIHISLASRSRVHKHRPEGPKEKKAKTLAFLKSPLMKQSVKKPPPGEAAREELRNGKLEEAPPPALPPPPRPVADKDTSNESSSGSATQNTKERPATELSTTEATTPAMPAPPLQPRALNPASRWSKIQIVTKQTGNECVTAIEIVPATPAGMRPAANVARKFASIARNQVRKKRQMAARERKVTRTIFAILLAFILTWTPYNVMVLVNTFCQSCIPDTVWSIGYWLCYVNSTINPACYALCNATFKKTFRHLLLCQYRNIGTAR
Method in brief: as §1

SMILES	Emax [1]	M3 Activity [1]	Emax [2]	M1 Activity [2]	Emax [3]	M2 Activity [3]	Emax [4]	M4 Activity [4]
COc1ccccc1C1CCN(C2CCC3CCCCC3C2)CC1 (centres unmarked) [Compound 255]	25 to 100%	+ (activity was measured to be greater than 5.0 μM)	25 to 100%	+ (activity was measured to be greater than 5.0 μM)	< 25%	+ (activity was measured to be greater than 5.0 μM)	25 to 100%	++ (activity was measured to be from 1.0 μM to 5.0 μM)
COc1ccc(Cl)cc1C1(F)CCN(CC2CCCCC2)CC1 [Compound 257]	< 25%	+ (activity was measured to be greater than 5.0 μM)	< 25%	+ (activity was measured to be greater than 5.0 μM)	< 25%	+ (activity was measured to be greater than 5.0 μM)	25 to 100%	+ (activity was measured to be greater than 5.0 μM)
CCS(=O)(=O)c1ccc(-c2ccc(OC)c(C3CCN([C@H]4C[C@H]5CC[C@H]4C5)CC3)c2)cc1 [Compound 258]	< 25%	+ (activity was measured to be greater than 5.0 μM)	25 to 100%	+ (activity was measured to be greater than 5.0 μM)	< 25%	+ (activity was measured to be greater than 5.0 μM)	25 to 100%	++ (activity was measured to be from 1.0 μM to 5.0 μM)
Fc1ccccc1C1CCN(C2C[C@H]3CC[C@H]2C3)CC1 (some centres unmarked) [Compound 259]	< 25%		25 to 100%		< 25%		25 to 100%	
CCc1ccc(OC)c(C2CCN([C@@H]3C[C@H]4CC[C@H]3C4)CC2)c1 [Compound 260]	< 25%	+ (activity was measured to be greater than 5.0 μM)	25 to 100%	+++ (activity was measured to be less than 1.0 μM)	< 25%	+ (activity was measured to be greater than 5.0 μM)	25 to 100%	+++ (activity was measured to be less than 1.0 μM)
Cc1ccc(C(F)(F)F)cc1C1CCN(C2C[C@H]3CC[C@H]2C3)CC1 (some centres unmarked) [Compound 261]	< 25%	+ (activity was measured to be greater than 5.0 μM)	25 to 100%	+++ (activity was measured to be less than 1.0 μM)	25 to 100%	+ (activity was measured to be greater than 5.0 μM)	25 to 100%	++ (activity was measured to be from 1.0 μM to 5.0 μM)
CCOC(=O)N1CCC(N2CCC(F)(c3cc(F)ccc3OC)CC2)CC1 [Compound 262]	< 25%	+ (activity was measured to be greater than 5.0 μM)	25 to 100%	+++ (activity was measured to be less than 1.0 μM)	< 25%	+ (activity was measured to be greater than 5.0 μM)	25 to 100%	+++ (activity was measured to be less than 1.0 μM)
COc1ccc(-c2ccc(CC#N)cc2)cc1C1CCN(C2CCOCC2)CC1 [Compound 263]	< 25%	+ (activity was measured to be greater than 5.0 μM)	< 25%	+ (activity was measured to be greater than 5.0 μM)	< 25%	+ (activity was measured to be greater than 5.0 μM)	< 25%	+ (activity was measured to be greater than 5.0 μM)
CCOC(=O)N1CCC(CN2CCC(c3cc(C#N)ccc3OC)CC2)CC1 [Compound 264]	< 25%	+ (activity was measured to be greater than 5.0 μM)	25 to 100%	+++ (activity was measured to be less than 1.0 μM)	< 25%	+ (activity was measured to be greater than 5.0 μM)	25 to 100%	+++ (activity was measured to be less than 1.0 μM)
COc1ccccc1C1CCN(C2CCC(C)C2)CC1 (centres unmarked) [Compound 265]	< 25%	+ (activity was measured to be greater than 5.0 μM)	25 to 100%	+ (activity was measured to be greater than 5.0 μM)	< 25%	+ (activity was measured to be greater than 5.0 μM)	25 to 100%	+++ (activity was measured to be less than 1.0 μM)
COc1ccccc1C1CCN(C2CCN(C(C)=O)CC2)CC1 [Compound 266]	< 25%	+ (activity was measured to be greater than 5.0 μM)	< 25%	+ (activity was measured to be greater than 5.0 μM)	< 25%	+ (activity was measured to be greater than 5.0 μM)	25 to 100%	++ (activity was measured to be from 1.0 μM to 5.0 μM)
COc1ccc(-c2ccc(F)cc2)cc1C1CCN([C@H]2C[C@H]3CC[C@H]2C3)CC1 [Compound 267]	< 25%	+ (activity was measured to be greater than 5.0 μM)	25 to 100%	+ (activity was measured to be greater than 5.0 μM)	< 25%	+ (activity was measured to be greater than 5.0 μM)	25 to 100%	+ (activity was measured to be greater than 5.0 μM)
COc1ccc(-c2ccc(S(C)(=O)=O)cc2)cc1C1CCN(C2CCCCC2)CC1 [Compound 268]	< 25%	+ (activity was measured to be greater than 5.0 μM)	25 to 100%	+ (activity was measured to be greater than 5.0 μM)	25 to 100%	+ (activity was measured to be greater than 5.0 μM)	25 to 100%	++ (activity was measured to be from 1.0 μM to 5.0 μM)
O=C(COc1ccccc1C1CCN([C@H]2C[C@H]3CC[C@H]2C3)CC1)c1ccccc1 [Compound 269]	< 25%	+ (activity was measured to be greater than 5.0 μM)	25 to 100%	+ (activity was measured to be greater than 5.0 μM)	< 25%	+ (activity was measured to be greater than 5.0 μM)	25 to 100%	+++ (activity was measured to be less than 1.0 μM)
CCOC(=O)N1C2CCC1CC(N1CCC(c3cc(-c4ccc(C(=O)NC)cc4)ccc3OC)CC1)C2 (centres unmarked) [Compound 270]	< 25%	+ (activity was measured to be greater than 5.0 μM)	25 to 100%	+++ (activity was measured to be less than 1.0 μM)	< 25%	+ (activity was measured to be greater than 5.0 μM)	25 to 100%	+++ (activity was measured to be less than 1.0 μM)
